{"source": "the supplement of paper PMC11061612", "key": {"A704 (Kidney Carcinoma)": {"test_system": "A704 (Kidney Carcinoma)", "experiment": "Bliss excess, mean over the matrix (fraction); higher = more synergy", "in_short": "(§1)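 Bliss excess equals the observed combination effect minus the expected value EA + EB − EA·EB, where EA and EB are the effects of each agent alone. Combination Emax is the second-highest inhibition within the matrix. Inhibition was scaled from CellTiter-Glo 2.0 luminescence, with 0 set by vehicle wells and 1 by blank wells, after 72 hours of two-drug dosing of cells plated in 1536-well plates.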"}, "[1]": {"test_system": "EMC-BAC-2 (Non-Small Cell Lung Carcinoma)", "experiment": "Bliss excess, mean over the matrix (fraction); higher = more synergy", "in_short": "as §1"}, "GOTO (Neuroblastoma) [2]": {"test_system": "GOTO (Neuroblastoma)", "experiment": "Bliss excess, mean over the matrix (fraction); higher = more synergy", "in_short": "as §1"}, "[3]": {"test_system": "KYSE-50 (Esophageal Squamous Cell Carcinoma)", "experiment": "Bliss excess, mean over the matrix (fraction); higher = more synergy", "in_short": "as §1"}, "NB7 (Neuroblastoma) [4]": {"test_system": "NB7 (Neuroblastoma)", "experiment": "Bliss excess, mean over the matrix (fraction); higher = more synergy", "in_short": "as §1"}, "[5]": {"test_system": "PFSK-1 (Other Solid Carcinomas)", "experiment": "Bliss excess, mean over the matrix (fraction); higher = more synergy", "in_short": "as §1"}, "[6]": {"test_system": "VMRC-LCD (Lung Adenocarcinoma)", "experiment": "Bliss excess, mean over the matrix (fraction); higher = more synergy", "in_short": "as §1"}, "[7]": {"test_system": "DG-75 (Burkitt's Lymphoma)", "experiment": "combination Emax (second highest fraction inhibited in the dose matrix, 72 h); higher = more inhibition; extreme values may be limits of the assay", "in_short": "as §1"}, "EW-13 (Ewing's Sarcoma)": {"test_system": "EW-13 (Ewing's Sarcoma)", "experiment": "combination Emax (second highest fraction inhibited in the dose matrix, 72 h); higher = more inhibition; extreme values may be limits of the assay", "in_short": "as §1"}, "GOTO (Neuroblastoma) [8]": {"test_system": "GOTO (Neuroblastoma)", "experiment": "combination Emax (second highest fraction inhibited in the dose matrix, 72 h); higher = more inhibition; extreme values may be limits of the assay", "in_short": "as §1"}, "[9]": {"test_system": "HuP-T3 (Pancreatic Carcinoma)", "experiment": "combination Emax (second highest fraction inhibited in the dose matrix, 72 h); higher = more inhibition; extreme values may be limits of the assay", "in_short": "as §1"}, "IMR-5 (Neuroblastoma)": {"test_system": "IMR-5 (Neuroblastoma)", "experiment": "combination Emax (second highest fraction inhibited in the dose matrix, 72 h); higher = more inhibition; extreme values may be limits of the assay", "in_short": "as §1"}, "[10]": {"test_system": "KYSE-50 (Esophageal Squamous Cell Carcinoma)", "experiment": "combination Emax (second highest fraction inhibited in the dose matrix, 72 h); higher = more inhibition; extreme values may be limits of the assay", "in_short": "as §1"}, "[11]": {"test_system": "MFE-319 (Endometrial Carcinoma)", "experiment": "combination Emax (second highest fraction inhibited in the dose matrix, 72 h); higher = more inhibition; extreme values may be limits of the assay", "in_short": "as §1"}, "NB7 (Neuroblastoma) [12]": {"test_system": "NB7 (Neuroblastoma)", "experiment": "combination Emax (second highest fraction inhibited in the dose matrix, 72 h); higher = more inhibition; extreme values may be limits of the assay", "in_short": "as §1"}, "[13]": {"test_system": "NCI-H2405 (Lung Adenocarcinoma)", "experiment": "combination Emax (second highest fraction inhibited in the dose matrix, 72 h); higher = more inhibition; extreme values may be limits of the assay", "in_short": "as §1"}, "[14]": {"test_system": "NCI-H513 (Other Solid Carcinomas)", "experiment": "combination Emax (second highest fraction inhibited in the dose matrix, 72 h); higher = more inhibition; extreme values may be limits of the assay", "in_short": "as §1"}, "[15]": {"test_system": "OCUM-1 (Gastric Carcinoma)", "experiment": "combination Emax (second highest fraction inhibited in the dose matrix, 72 h); higher = more inhibition; extreme values may be limits of the assay", "in_short": "as §1"}, "[16]": {"test_system": "TGBC11TKB (Gastric Carcinoma)", "experiment": "combination Emax (second highest fraction inhibited in the dose matrix, 72 h); higher = more inhibition; extreme values may be limits of the assay", "in_short": "as §1"}, "[17]": {"test_system": "VMRC-LCD (Lung Adenocarcinoma)", "experiment": "combination Emax (second highest fraction inhibited in the dose matrix, 72 h); higher = more inhibition; extreme values may be limits of the assay", "in_short": "as §1"}}}
{"smiles": "CN(CCO)CC[C@H](CSc1ccccc1)Nc1ccc(S(=O)(=O)NC(=O)c2ccc(N3CCC([C@@H](O)c4ccccc4-c4ccc(Cl)cc4)CC3)cc2)cc1S(=O)(=O)C(F)(F)F", "note": "[AZD4320] + C[C@@H](Nc1cc(F)cc(F)c1)c1cc(C(=O)N(C)C)cc2c(=O)cc(N3CCOCC3)oc12 [AZD8186] (first compound max 1 µM, 7x7, partner max 3 µM)", "values": [{"measurement": "Bliss excess", "setting": "A704 (Kidney Carcinoma)", "result": -0.117}, {"measurement": "Bliss excess", "setting": "[1]", "result": 0.0472}, {"measurement": "Bliss excess", "setting": "GOTO (Neuroblastoma) [2]", "result": 0.0279}, {"measurement": "Bliss excess", "setting": "[3]", "result": 0.0097}, {"measurement": "Bliss excess", "setting": "NB7 (Neuroblastoma) [4]", "result": 0.0133}, {"measurement": "Bliss excess", "setting": "[5]", "result": 0.0634}, {"measurement": "Bliss excess", "setting": "[6]", "result": -0.0206}, {"measurement": "combination Emax", "setting": "[7]", "result": 0.286}, {"measurement": "combination Emax", "setting": "EW-13 (Ewing's Sarcoma)", "result": 0.911}, {"measurement": "combination Emax", "setting": "GOTO (Neuroblastoma) [8]", "result": 0.831}, {"measurement": "combination Emax", "setting": "[9]", "result": 0.332}, {"measurement": "combination Emax", "setting": "IMR-5 (Neuroblastoma)", "result": 1}, {"measurement": "combination Emax", "setting": "[10]", "result": 0.283}, {"measurement": "combination Emax", "setting": "[11]", "result": 0.427}, {"measurement": "combination Emax", "setting": "NB7 (Neuroblastoma) [12]", "result": 0.49}, {"measurement": "combination Emax", "setting": "[13]", "result": 0.417}, {"measurement": "combination Emax", "setting": "[14]", "result": 0.342}, {"measurement": "combination Emax", "setting": "[15]", "result": 0.884}, {"measurement": "combination Emax", "setting": "[16]", "result": 0.338}, {"measurement": "combination Emax", "setting": "[17]", "result": 0.249}]}
{"smiles": "NC1(C(=O)N[C@@H](CCO)c2ccc(Cl)cc2)CCN(c2ncnc3[nH]ccc23)CC1", "note": "[Capivasertib] + CC(=O)c1c(C)c2cnc(Nc3ccc(N4CCNCC4)cn3)nc2n(C2CCCC2)c1=O [Palbociclib] (first compound max 10 µM, 7x7, partner max 10 µM)", "values": [{"measurement": "Bliss excess", "setting": "A704 (Kidney Carcinoma)", "result": -0.0413}, {"measurement": "Bliss excess", "setting": "[1]", "result": -0.0727}, {"measurement": "Bliss excess", "setting": "GOTO (Neuroblastoma) [2]", "result": 0.0599}, {"measurement": "Bliss excess", "setting": "[3]", "result": -0.0129}, {"measurement": "Bliss excess", "setting": "NB7 (Neuroblastoma) [4]", "result": 0.0291}, {"measurement": "Bliss excess", "setting": "[5]", "result": 0.0014}, {"measurement": "Bliss excess", "setting": "[6]", "result": -0.0153}, {"measurement": "combination Emax", "setting": "[7]", "result": 0.744}, {"measurement": "combination Emax", "setting": "EW-13 (Ewing's Sarcoma)", "result": 0.296}, {"measurement": "combination Emax", "setting": "GOTO (Neuroblastoma) [8]", "result": 0.81}, {"measurement": "combination Emax", "setting": "[9]", "result": 0.324}, {"measurement": "combination Emax", "setting": "IMR-5 (Neuroblastoma)", "result": 0.581}, {"measurement": "combination Emax", "setting": "[10]", "result": 0.326}, {"measurement": "combination Emax", "setting": "[11]", "result": 0.611}, {"measurement": "combination Emax", "setting": "NB7 (Neuroblastoma) [12]", "result": 0.689}, {"measurement": "combination Emax", "setting": "[13]", "result": 0.612}, {"measurement": "combination Emax", "setting": "[14]", "result": 0.368}, {"measurement": "combination Emax", "setting": "[15]", "result": 0.582}, {"measurement": "combination Emax", "setting": "[16]", "result": 0.166}, {"measurement": "combination Emax", "setting": "[17]", "result": 0.127}]}
{"smiles": "CC(=O)c1c(C)c2cnc(Nc3ccc(N4CCNCC4)cn3)nc2n(C2CCCC2)c1=O", "note": "[Palbociclib] + Cn1cnc2c(F)c(Nc3ccc(Br)cc3Cl)c(C(=O)NOCCO)cc21 [Selumetinib] (first compound max 10 µM, 7x7, partner max 10 µM)", "values": [{"measurement": "Bliss excess", "setting": "A704 (Kidney Carcinoma)", "result": -0.0874}, {"measurement": "Bliss excess", "setting": "[1]", "result": 0.0049}, {"measurement": "Bliss excess", "setting": "GOTO (Neuroblastoma) [2]", "result": 0.0623}, {"measurement": "Bliss excess", "setting": "[3]", "result": 0.0789}, {"measurement": "Bliss excess", "setting": "NB7 (Neuroblastoma) [4]", "result": 0.0136}, {"measurement": "Bliss excess", "setting": "[5]", "result": -0.0505}, {"measurement": "Bliss excess", "setting": "[6]", "result": -0.0448}, {"measurement": "combination Emax", "setting": "[7]", "result": 0.723}, {"measurement": "combination Emax", "setting": "EW-13 (Ewing's Sarcoma)", "result": 0.113}, {"measurement": "combination Emax", "setting": "GOTO (Neuroblastoma) [8]", "result": 0.819}, {"measurement": "combination Emax", "setting": "[9]", "result": 0.385}, {"measurement": "combination Emax", "setting": "IMR-5 (Neuroblastoma)", "result": 0.612}, {"measurement": "combination Emax", "setting": "[10]", "result": 0.357}, {"measurement": "combination Emax", "setting": "[11]", "result": 0.31}, {"measurement": "combination Emax", "setting": "NB7 (Neuroblastoma) [12]", "result": 0.331}, {"measurement": "combination Emax", "setting": "[13]", "result": 0.428}, {"measurement": "combination Emax", "setting": "[14]", "result": 0.305}, {"measurement": "combination Emax", "setting": "[15]", "result": 0.944}, {"measurement": "combination Emax", "setting": "[16]", "result": 0.436}, {"measurement": "combination Emax", "setting": "[17]", "result": 0.123}]}
